Reference: the NIST ThermoML archive (doi:10.1021/acs.jced.8b00157)
Values joined by “and” are separate entries in the source; they are usually repeats but may differ in a detail not shown here. Equal values may be shown once. ± gives the expanded uncertainty stated by the source.

Experiment: an = ratio of the nth substance listed
Details: 100 kPa, Liquid, Buoyancy - hydrostatic balance, a2 = 1.7

[F][Al]([F])[F] [aluminum fluoride] + [F-].[K+]
Details	mass density
1188.2 K	1843 ± 10 kg/m3
1188.4 K	1842 ± 11 kg/m3
1188.6 K	1842 ± 10 kg/m3
1189.2 K	1841 ± 10 kg/m3
1189.7 K	1841 ± 11 kg/m3
1189.8 K	1841 ± 10 kg/m3
1190.6 K	1840 ± 10 kg/m3
1190.7 K	1840 ± 10 kg/m3
1190.9 K	1840 ± 10 kg/m3
1191.6 K	1839 ± 10 kg/m3 and 1840 ± 10 kg/m3
1191.7 K	1839 ± 10 kg/m3
1191.8 K	1840 ± 10 kg/m3
1192.2 K	1839 ± 10 kg/m3
1192.4 K	1838 ± 10 kg/m3
1192.7 K	1838 ± 10 kg/m3
1192.8 K	1838 ± 10 kg/m3
1193 K	1839 ± 10 kg/m3
1193.8 K	1837 ± 10 kg/m3
1194 K	1838 ± 10 kg/m3
1194.2 K	1837 ± 10 kg/m3
1194.6 K	1837 ± 10 kg/m3
1194.9 K	1837 ± 11 kg/m3
1195.3 K	1836 ± 11 kg/m3
1195.6 K	1835 ± 10 kg/m3 and 1837 ± 10 kg/m3
1195.9 K	1835 ± 10 kg/m3
1196.1 K	1836 ± 10 kg/m3
1196.3 K	1835 ± 10 kg/m3
1196.5 K	1835 ± 10 kg/m3
1197.1 K	1835 ± 10 kg/m3
1197.5 K	1834 ± 10 kg/m3
1197.7 K	1834 ± 11 kg/m3
1197.8 K	1834 ± 11 kg/m3 and 1835 ± 11 kg/m3
1198.1 K	1834 ± 11 kg/m3
1198.4 K	1833 ± 11 kg/m3
1198.9 K	1833 ± 11 kg/m3
1199.6 K	1832 ± 11 kg/m3
1199.9 K	1833 ± 10 kg/m3
1200.2 K	1832 ± 11 kg/m3
1200.5 K	1831 ± 10 kg/m3
1200.7 K	1832 ± 11 kg/m3
1200.8 K	1831 ± 10 kg/m3 and 1832 ± 10 kg/m3
1201.4 K	1830 ± 11 kg/m3
1201.7 K	1830 ± 11 kg/m3 and 1831 ± 11 kg/m3
1202.1 K	1831 ± 11 kg/m3
1202.2 K	1832 ± 11 kg/m3
1202.4 K	1830 ± 11 kg/m3 and 1831 ± 11 kg/m3
1202.9 K	1829 ± 11 kg/m3 and 1831 ± 11 kg/m3
1203 K	1829 ± 11 kg/m3
1203.6 K	1829 ± 11 kg/m3
1203.8 K	1828 ± 11 kg/m3
1203.9 K	1828 ± 11 kg/m3
1204 K	1828 ± 11 kg/m3 and 1829 ± 11 kg/m3
1204.3 K	1828 ± 11 kg/m3
1204.6 K	1827 ± 10 kg/m3
1204.7 K	1827 ± 10 kg/m3
1205 K	1826 ± 11 kg/m3
1205.6 K	1826 ± 11 kg/m3
1205.8 K	1826 ± 11 kg/m3
1206 K	1827 ± 11 kg/m3
1206.3 K	1826 ± 11 kg/m3
1206.6 K	1826 ± 11 kg/m3
1206.7 K	1825 ± 11 kg/m3
1207 K	1826 ± 11 kg/m3
1207.1 K	1825 ± 11 kg/m3
1207.3 K	1824 ± 10 kg/m3
1207.5 K	1825 ± 10 kg/m3
1207.6 K	1824 ± 10 kg/m3
1207.8 K	1824 ± 11 kg/m3
1207.9 K	1825 ± 11 kg/m3
1208.2 K	1824 ± 12 kg/m3
1208.4 K	1823 ± 11 kg/m3
1208.5 K	1823 ± 11 kg/m3
1208.7 K	1822 ± 10 kg/m3
1209.3 K	1823 ± 10 kg/m3
1209.7 K	1823 ± 11 kg/m3
1209.8 K	1823 ± 11 kg/m3
1210.1 K	1821 ± 11 kg/m3
1210.2 K	1822 ± 11 kg/m3
1210.5 K	1821 ± 11 kg/m3
1211 K	1822 ± 11 kg/m3
1211.2 K	1822 ± 11 kg/m3
1211.3 K	1822 ± 11 kg/m3
1211.4 K	1821 ± 11 kg/m3
1211.7 K	1821 ± 11 kg/m3 and 1820 ± 11 kg/m3
1211.8 K	1822 ± 11 kg/m3
1211.9 K	1821 ± 11 kg/m3 and 1819 ± 11 kg/m3
1212.3 K	1820 ± 11 kg/m3 and 1819 ± 11 kg/m3
1212.6 K	1819 ± 11 kg/m3
1212.9 K	1820 ± 11 kg/m3
1213.1 K	1820 ± 11 kg/m3
1213.3 K	1820 ± 11 kg/m3
1213.5 K	1819 ± 11 kg/m3
1213.7 K	1820 ± 11 kg/m3
1213.8 K	1819 ± 11 kg/m3
1214 K	1819 ± 12 kg/m3 and 1818 ± 12 kg/m3
1214.2 K	1817 ± 11 kg/m3
1214.6 K	1819 ± 11 kg/m3
1214.7 K	1819 ± 11 kg/m3
1215.1 K	1819 ± 11 kg/m3
1215.2 K	1819 ± 11 kg/m3 and 1816 ± 11 kg/m3
1215.5 K	1818 ± 11 kg/m3
1215.6 K	1816 ± 11 kg/m3
1216 K	1815 ± 12 kg/m3
1216.7 K	1814 ± 11 kg/m3
1217 K	1814 ± 11 kg/m3
1217.5 K	1813 ± 12 kg/m3
1218.2 K	1813 ± 11 kg/m3
1218.7 K	1812 ± 11 kg/m3
1219.2 K	1811 ± 13 kg/m3 and 1812 ± 12 kg/m3
1220.3 K	1810 ± 11 kg/m3
1220.6 K	1809 ± 13 kg/m3
1220.9 K	1810 ± 13 kg/m3
1221.8 K	1809 ± 11 kg/m3
1222.2 K	1808 ± 11 kg/m3
1222.3 K	1808 ± 11 kg/m3
1222.7 K	1807 ± 12 kg/m3
1223.3 K	1807 ± 11 kg/m3
1223.7 K	1805 ± 12 kg/m3
1223.8 K	1806 ± 11 kg/m3
